Measured values published in article PMC4832243, “Discovery of Potent VEGFR-2 Inhibitors based on Furopyrimidine and Thienopyrimidne Scaffolds as Cancer Targeting Agents” (Scientific Reports, 2016).

What was measured:
Type in all cases: cell-based
[1] = system: SF-539; test: NCI 60 cell line panel (SRB), SF-539; details: Homo sapiens; SF-539, CNS Cancer; single dose of 10 μM; read-out: Cell Growth Percent
[2] = system: SR; test: NCI 60 cell line panel (SRB), SR; details: Homo sapiens, Leukemia, single dose of 10 μM, read-out: Cell Growth Percent
[3] = system: SK-MEL-2; test: NCI 60 cell line panel (SRB), SK-MEL-2; details: Homo sapiens; SK-MEL-2, Melanoma; single dose of 10 μM; read-out: Cell Growth Percent
[4] = system: OVCAR-5; test: NCI 60 cell line panel (SRB), OVCAR-5; details: Homo sapiens; OVCAR-5, Ovarian Cancer; single dose of 10 μM; read-out: Cell Growth Percent
[5] = system: NCI-H23; test: NCI 60 cell line panel (SRB), NCI-H23; details: Homo sapiens; NCI-H23, Non-Small Cell Lung Cancer; single dose of 10 μM; read-out: Cell Growth Percent
[6] = system: TK-10; test: NCI 60 cell line panel (SRB), TK-10; details: Homo sapiens; TK-10, Renal Cancer; single dose of 10 μM; read-out: Cell Growth Percent
[7] = system: ACHN; test: NCI 60 cell line panel (SRB), ACHN; details: Homo sapiens, Renal Cancer, single dose of 10 μM, read-out: Cell Growth Percent
[8] = system: HS 578T; test: NCI 60 cell line panel (SRB), HS 578T; details: Homo sapiens, Breast Cancer, single dose of 10 μM, read-out: Cell Growth Percent
[9] = system: NCI/ADR-RES; test: NCI 60 cell line panel (SRB), NCI/ADR-RES; details: Homo sapiens, Ovarian Cancer, single dose of 10 μM, read-out: Cell Growth Percent
[10] = system: OVCAR-3; test: NCI 60 cell line panel (SRB), OVCAR-3; details: Homo sapiens; OVCAR-3, Ovarian Cancer; single dose of 10 μM; read-out: Cell Growth Percent
[11] = system: HOP-92; test: NCI 60 cell line panel (SRB), HOP-92; details: Homo sapiens; HOP-92, Non-Small Cell Lung Cancer; single dose of 10 μM; read-out: Cell Growth Percent
[12] = system: SK-OV-3; test: NCI 60 cell line panel (SRB), SK-OV-3; details: Homo sapiens; SK-OV-3, Ovarian Cancer; single dose of 10 μM; read-out: Cell Growth Percent
[13] = system: M14; test: NCI 60 cell line panel (SRB), M14; details: Homo sapiens; M14, Melanoma; single dose of 10 μM; read-out: Cell Growth Percent
[14] = system: RPMI-8226; test: NCI 60 cell line panel (SRB), RPMI-8226; details: Homo sapiens; RPMI-8226, Leukemia; single dose of 10 μM; read-out: Cell Growth Percent
[15] = system: HCT-15; test: NCI 60 cell line panel (SRB), HCT-15; details: Homo sapiens; HCT-15, Colon Cancer; single dose of 10 μM; read-out: Cell Growth Percent
[16] = system: HL-60(TB); test: NCI 60 cell line panel (SRB), HL-60(TB); details: Homo sapiens, Leukemia, single dose of 10 μM, read-out: Cell Growth Percent
[17] = system: HCC-2998; test: NCI 60 cell line panel (SRB), HCC-2998; details: Homo sapiens; HCC-2998, Colon Cancer; single dose of 10 μM; read-out: Cell Growth Percent
[18] = system: HT29; test: NCI 60 cell line panel (SRB), HT29; details: Homo sapiens, HT-29; HT29, Colon Cancer; single dose of 10 μM; read-out: Cell Growth Percent
[19] = system: NCI-H226; test: NCI 60 cell line panel (SRB), NCI-H226; details: Homo sapiens; NCI-H226, Non-Small Cell Lung Cancer; single dose of 10 μM; read-out: Cell Growth Percent
[20] = system: UACC-62; test: NCI 60 cell line panel (SRB), UACC-62; details: Homo sapiens; UACC-62, Melanoma; single dose of 10 μM; read-out: Cell Growth Percent
[21] = system: MOLT-4; test: NCI 60 cell line panel (SRB), MOLT-4; details: Homo sapiens; MOLT-4, Leukemia; single dose of 10 μM; read-out: Cell Growth Percent
[22] = system: OVCAR-8; test: NCI 60 cell line panel (SRB), OVCAR-8; details: Homo sapiens; OVCAR-8, Ovarian Cancer; single dose of 10 μM; read-out: Cell Growth Percent
[23] = system: SNB-75; test: NCI 60 cell line panel (SRB), SNB-75; details: Homo sapiens; SNB-75, CNS Cancer; single dose of 10 μM; read-out: Cell Growth Percent
[24] = system: 786-0; test: NCI 60 cell line panel (SRB), 786-0; details: Homo sapiens; 786-0, Renal Cancer; single dose of 10 μM; read-out: Cell Growth Percent
[25] = system: NCI-H522; test: NCI 60 cell line panel (SRB), NCI-H522; details: Homo sapiens; NCI-H522, Non-Small Cell Lung Cancer; single dose of 10 μM; read-out: Cell Growth Percent
[26] = system: BT-549; test: NCI 60 cell line panel (SRB), BT-549; details: Homo sapiens; BT-549, Breast Cancer; single dose of 10 μM; read-out: Cell Growth Percent
[27] = system: LOX IMVI; test: NCI 60 cell line panel (SRB), LOX IMVI; details: Homo sapiens, Melanoma, single dose of 10 μM, read-out: Cell Growth Percent
[28] = system: A498; test: NCI 60 cell line panel (SRB), A498; details: Homo sapiens; A498, Renal Cancer; single dose of 10 μM; read-out: Cell Growth Percent
[29] = system: CCRF-CEM; test: NCI 60 cell line panel (SRB), CCRF-CEM; details: Homo sapiens, Leukemia, single dose of 10 μM, read-out: Cell Growth Percent
[30] = system: IGROV1; test: NCI 60 cell line panel (SRB), IGROV1; details: Homo sapiens, IGROV-1; IGROV1, Ovarian Cancer; single dose of 10 μM; read-out: Cell Growth Percent
[31] = system: CAKI-1; test: NCI 60 cell line panel (SRB), CAKI-1; details: Homo sapiens; CAKI-1, Renal Cancer; single dose of 10 μM; read-out: Cell Growth Percent
[32] = system: UO-31; test: NCI 60 cell line panel (SRB), UO-31; details: Homo sapiens; UO-31, Renal Cancer; single dose of 10 μM; read-out: Cell Growth Percent
[33] = system: PC-3; test: NCI 60 cell line panel (SRB), PC-3; details: Homo sapiens; PC-3, Prostate Cancer; single dose of 10 μM; read-out: Cell Growth Percent
[34] = system: MDA-MB-468; test: NCI 60 cell line panel (SRB), MDA-MB-468; details: Homo sapiens; MDA-MB-468, Breast Cancer; single dose of 10 μM; read-out: Cell Growth Percent

Row | Compound | activity at 10 µM [1] | activity at 10 µM [2] | activity at 10 µM [3] | activity at 10 µM [4] | activity at 10 µM [5] | activity at 10 µM [6] | activity at 10 µM [7] | activity at 10 µM [8] | activity at 10 µM [9] | activity at 10 µM [10] | activity at 10 µM [11] | activity at 10 µM [12] | activity at 10 µM [13] | activity at 10 µM [14] | activity at 10 µM [15] | activity at 10 µM [16] | activity at 10 µM [17] | activity at 10 µM [18] | activity at 10 µM [19] | activity at 10 µM [20] | further results
1 | O=C(Nc1ccc(Cl)cc1)Nc1ccc(Oc2ncnc3sc4c(c23)CCCC4)cc1 [Compound 21d] | 70.9% | 72.4% | 104% | 113% | 87.4% | 88.3% | 95.4% | 74.7% | 85% | 85.8% | 102% | 90.8% | 87% | 68.8% | 91.6% | 100% | 107% | 86.4% | 74% | 73.2% | activity at 10 µM [21]: 72%; activity at 10 µM [22]: 94.7%; activity at 10 µM [23]: 70.8%; activity at 10 µM [24]: 108%; activity at 10 µM [25]: 47.5%; activity at 10 µM [26]: 112%; activity at 10 µM [27]: 84.8%; activity at 10 µM [28]: 70.1%; activity at 10 µM [29]: 77.9%; activity at 10 µM [30]: 108%; activity at 10 µM [31]: 95.4%; activity at 10 µM [32]: 71.2%; activity at 10 µM [33]: 57.6%; activity at 10 µM [34]: 103%
2 | CCOC(=O)c1c(C)oc2ncnc(Nc3ccc(C(=O)NCCc4ccccc4)cc3)c12 [Compound 14e] | 58.9% | 89.2% | 82.4% | 110% | 81.8% | 102% | 88.7% | 51.2% | 76.9% | 97.2% | 61.5% | 85.5% | 81.2% | 84.5% | 92.2% | 87.6% | 91.4% | 58.8% | 63.1% | 94.9% | activity at 10 µM [21]: 105%; activity at 10 µM [22]: 76.6%; activity at 10 µM [23]: 7%; activity at 10 µM [24]: 74.9%; activity at 10 µM [25]: 66.9%; activity at 10 µM [26]: 67.3%; activity at 10 µM [27]: 75.2%; activity at 10 µM [28]: 77.5%; activity at 10 µM [29]: 80.9%; activity at 10 µM [30]: 102%; activity at 10 µM [31]: 92.5%; activity at 10 µM [32]: 97.3%; activity at 10 µM [33]: 59.2%; activity at 10 µM [34]: 90.7%
3 | CCOC(=O)c1c(C)oc2ncnc(Nc3ccc(C(=O)Nc4cccc(Cl)c4)cc3)c12 [Compound 14a] | 107% | 74.8% | 99.8% | 116% | 100% | 102% | 114% | 107% | 99.4% | 110% | 92% | 112% | 95.2% | 94.6% | 108% | 105% | 105% | 83.6% | 97% | 67.6% | activity at 10 µM [21]: 94%; activity at 10 µM [22]: 103%; activity at 10 µM [23]: 105%; activity at 10 µM [24]: 96.3%; activity at 10 µM [25]: 78%; activity at 10 µM [26]: 87.6%; activity at 10 µM [27]: 93.1%; activity at 10 µM [28]: 92.4%; activity at 10 µM [29]: 93.8%; activity at 10 µM [30]: 105%; activity at 10 µM [31]: 99.2%; activity at 10 µM [32]: 89.5%; activity at 10 µM [33]: 78.3%; activity at 10 µM [34]: 90.9%
4 | Cc1cccc(NC(=O)Nc2ccc(Oc3ncnc4sc5c(c34)CCCC5)cc2)c1 [Compound 21b] | 59.3% | 55.8% | 99.7% | 114% | 72.4% | 72.5% | 73.4% | 76.8% | 71.5% | 63.5% | 80.9% | 79.7% | 68.2% | 58.9% | 74.9% | 98.4% | 104% | 65.6% | 73.1% | 75.7% | activity at 10 µM [21]: 58.1%; activity at 10 µM [22]: 85.9%; activity at 10 µM [23]: 51.9%; activity at 10 µM [24]: 87%; activity at 10 µM [25]: 16.1%; activity at 10 µM [26]: 71.9%; activity at 10 µM [27]: 77.3%; activity at 10 µM [28]: 68.3%; activity at 10 µM [29]: 70%; activity at 10 µM [30]: 89%; activity at 10 µM [31]: 86%; activity at 10 µM [32]: 59%; activity at 10 µM [33]: 37.5%; activity at 10 µM [34]: 87.2%
